Measurements: paper PMC7497625, “Machine-Vision-Enabled Salt Dissolution Analysis” (Analytical Chemistry, 2020)
≈ marks a conversion by molar mass, not a printed value. Marks after values point to notes of the source that are not given here.

Assays:
[1] = Machine-vision-based single-particle analysis (SPA) solubility measurement, pH-solubility profile; format: physicochemical
Experimental: The SPA measurements were carried out as already previously described by Svanbäck et al. and Štukelj et al.[17],[19],[20] Briefly, the two main components of the SPA method are the flow-through setup and the analysis software. The flow-through setup enables trapping and machine-vision tracking of drug particles under steady flow–sink–conditions. The average measurement time is 5 min. The captured images are then analyzed using custom-made software, which is capable of semiautomatic particle recognition and tracking of the individual particle morphology throughout the measurement. The decrease in size, under sink conditions, according to Noyes and Whitney, is directly proportional to the equilibrium solubility of the compound. In this way, the solubility data from the images is extracted. Depending on the number of particles, the reported solubility values are an average of up to several hundred individual particles. For in-depth description and visuals, readers are directed to the three original papers cited above.

[2] = Miniaturized shake-flask (SF) experiment in USP buffers with HPLC-UV, pH measurement and XRPD of remaining solids; format: physicochemical
Experimental: For NAP, both phosphate and borate buffers were used at pH 8.0. […] At 48, 72, and 96 h the rotation was stopped, pHs were measured, and samples were centrifuged at constant temperature and 21 100g for 15 min prior to sampling of the supernatant. The supernatants were appropriately diluted and analyzed with reverse-phase HPLC-UV. After 96 h, the solids were extracted and analyzed using XRPD. […] Drug concentration in the supernatants was determined using an Agilent High Performance Liquid Chromatography (HPLC) 1260 system (Agilent Technologies, Germany) coupled with a Phenomenex Gemini NX-C18, 3 μm, 100 × 4.6 mm column (Phenomenex, Torrace, CA). The temperature of the column was set to 30 °C. The mobile phase was 0.2% H3PO4:acetonitrile (40:60, v:v for DIC and 50:50, v:v for NAP) with a flow rate of 1 mL/min. The injection volume was 20 μL, and detection was performed at 276 nm for DIC and 254 nm for NAP. Standard solutions of DIC and NAP were prepared in 0.2% H3PO4:acetonitrile (50:50, v:v) and analyzed with HPLC-UV to construct the calibration curve. […] To determine the solid-state form of the initial samples, XRPD diffractograms were recorded with an Aeris diffractometer (Malvern Panalytical B.V., Almelo, The Netherlands) using Cu Kα radiation (λ = 1.540598 Å) and a divergence slit of 0.76 mm. […] Measurements were performed in triplicate with independent samples. Additional measurements using XRPD were performed for the remaining solids after the 96 h miniaturized SF experiments.

[3] = cited from earlier work
[4] = 0.05 M USP buffer Borate pH 8.0
[5] = 0.05 M USP buffer Borate pH 9.0
[6] = 0.05 M USP buffer Phosphate pH 6.0
[7] = 0.05 M USP buffer Phosphate pH 7.0
[8] = 0.05 M USP buffer Phtalate pH 3.0
[9] = 0.05 M USP buffer Phtalate pH 4.0
[10] = 0.05 M USP buffer Phtalate pH 5.0
[11] = starting material free acid, after 96 h

Question: For `O=C(O)Cc1ccccc1Nc1c(Cl)cccc1Cl` [diclofenac, Diclofenac], which solubility at 5 min ([1]; read-out: S0 SPA (intrinsic solubility)) is on record?
Answer: Its solubility at 5 min is 0.6 ± 0.3 µg/mL (≈ 2.03 µM).

Question: What about the “Measured pH of miniaturized SF experiment” value (shortened to “Measured pH”) [2, 4] of the same molecule?
Answer: The value was 7.0.

Question: What about the “Measured pH” value [2, 5] of the same molecule?
Answer: The value was 7.8.

Question: What about the “Measured pH” value ([2]; 0.05 M USP buffer HCl pH 2.0) of the same molecule?
Answer: The value was 2.0.

Question: And the “Measured pH” value [2, 6]?
Answer: The value was 6.0.

Question: What about the “Measured pH” value [2, 7] of the same molecule?
Answer: The value was 6.9.

Question: What about the “Measured pH” value [2, 8] of the same molecule?
Answer: The value was 3.00.

Question: And the “Measured pH” value [2, 9]?
Answer: Its value is 4.0.

Question: What about the “Measured pH” value [2, 10] of the same molecule?
Answer: The value was 4.9.

Question: What about the “solid-state form at end of SF experiment (XRPD)” value (from here on “solid-state form at end”) [2, 11] of the same molecule?
Answer: The value was “remained in the same form throughout the experiment”.

Question: For `COc1ccc2cc([C@H](C)C(=O)O)ccc2c1` [naproxen sodium], which pHmax lit. [3] is on record?
Answer: The pHmax lit. was “∼8 ^c”.

Question: What about the “solid-state form at end” value ([2]; starting material anhydrous salt, pH 8.0, borate and phosphate buffer) of the same molecule?
Answer: Its value is “converted into its hydrate form”.

Question: And the “solid-state form at end” value ([2]; starting material salt, initial pHs 2.0, 4.0 and 6.0)?
Answer: The value was “converted into a free acid”.

Question: Which results are given for `COc1ccc2cc([C@H](C)C(=O)O)ccc2c1` [naproxen, Naproxen]?
Answer: Measured pH of miniaturized SF experiment [2, 4]: 6.0; Measured pH of miniaturized SF experiment [2, 5]: 6.8; Measured pH of miniaturized SF experiment ([2]; 0.05 M USP buffer HCl pH 2.0): 1.9; Measured pH of miniaturized SF experiment [2, 6]: 5.8; Measured pH of miniaturized SF experiment [2, 7]: 6.6; Measured pH of miniaturized SF experiment ([2]; 0.05 M USP buffer Phosphate pH 8.0): 6.9; Measured pH of miniaturized SF experiment [2, 8]: 3.0; Measured pH of miniaturized SF experiment [2, 9]: 4.1; Measured pH of miniaturized SF experiment [2, 10]: 5.0; solid-state form at end of SF experiment (XRPD) [2, 11]: the same form remained throughout the experiment

Question: What does the source list for `O=C(O)Cc1ccccc1Nc1c(Cl)cccc1Cl` [diclofenac sodium]?
Answer: pHmax lit. [3]: ∼8 ^a^, ^e; pHmax′ SPA (apparent pHmax) ([1]; intersect of the two regions of the SPA pH-solubility profile, started with anhydrous salt): 7.35; pHmax ([1]; linear extrapolation of pH-corrected SPA values of free acid to the SF-determined solubility of the salt (Figure 2b / 5b)): 7.98; SPA solubility upon disproportionation compared to the free acid ([1]; region below pH 8): higher solubility upon disproportionation; solid-state form at end of SF experiment (XRPD) ([2]; starting material anhydrous salt, initial pH 6.0 and 8.0): converted into its hydrate form; solid-state form at end of SF experiment (XRPD) ([2]; starting material salt, initial pH 2.0 and 4.0): converted into a free acid form
